Reference: publication PMC7000700, “RyR1-targeted drug discovery pipeline integrating FRET-based high-throughput screening and human myofiber dynamic Ca^2+ assays” (Scientific Reports, 2020)

Target: RyR2 (Sus scrofa, UniProt A0A5G2R1W3)
Experiment: F-FKBP binding to RyR2 by co-sedimentation with cardiac SR membranes
Design: using co-sedimentation with pig skeletal and cardiac SR membranes; from tissue; host or cells: pig cardiac muscle (crude SR membranes); species or system pig
Details: RyR2, 10 μM Hit, 30 nM Ca2+, 5 mM GSSG or GSH
Experimental: The Hit-induced effect on FRET between D-FKBP and A-CaM most likely results from one or the combination of factors, including a shift in CaM and/or FKBP12.6 binding, and/or structure of the RyR complex that shifts the D-A distance. Under the same assay conditions as in the primary screen, we assessed the effect of 10 μM Hit on fluorescent FKBP12.6 (F-FKBP) binding to RyRs, using co-sedimentation with pig skeletal and cardiac SR membranes.
Supplementary Fig. 3 Effect of HTS Hits on F-FKBP binding to a) RyR1 in skeletal HSR membranes, and b) RyR2
in cardiac CSR membranes at 30 nM Ca2+ in the presence of 5 mM GSSG or GSH. Results are represented as individual
data points and means ± SEM, n = 4-5. *P < 0.05 by 2-sided Student’s unpaired t-test. […]

RyR2, sequence (A0A5G2R1W3 20-4900): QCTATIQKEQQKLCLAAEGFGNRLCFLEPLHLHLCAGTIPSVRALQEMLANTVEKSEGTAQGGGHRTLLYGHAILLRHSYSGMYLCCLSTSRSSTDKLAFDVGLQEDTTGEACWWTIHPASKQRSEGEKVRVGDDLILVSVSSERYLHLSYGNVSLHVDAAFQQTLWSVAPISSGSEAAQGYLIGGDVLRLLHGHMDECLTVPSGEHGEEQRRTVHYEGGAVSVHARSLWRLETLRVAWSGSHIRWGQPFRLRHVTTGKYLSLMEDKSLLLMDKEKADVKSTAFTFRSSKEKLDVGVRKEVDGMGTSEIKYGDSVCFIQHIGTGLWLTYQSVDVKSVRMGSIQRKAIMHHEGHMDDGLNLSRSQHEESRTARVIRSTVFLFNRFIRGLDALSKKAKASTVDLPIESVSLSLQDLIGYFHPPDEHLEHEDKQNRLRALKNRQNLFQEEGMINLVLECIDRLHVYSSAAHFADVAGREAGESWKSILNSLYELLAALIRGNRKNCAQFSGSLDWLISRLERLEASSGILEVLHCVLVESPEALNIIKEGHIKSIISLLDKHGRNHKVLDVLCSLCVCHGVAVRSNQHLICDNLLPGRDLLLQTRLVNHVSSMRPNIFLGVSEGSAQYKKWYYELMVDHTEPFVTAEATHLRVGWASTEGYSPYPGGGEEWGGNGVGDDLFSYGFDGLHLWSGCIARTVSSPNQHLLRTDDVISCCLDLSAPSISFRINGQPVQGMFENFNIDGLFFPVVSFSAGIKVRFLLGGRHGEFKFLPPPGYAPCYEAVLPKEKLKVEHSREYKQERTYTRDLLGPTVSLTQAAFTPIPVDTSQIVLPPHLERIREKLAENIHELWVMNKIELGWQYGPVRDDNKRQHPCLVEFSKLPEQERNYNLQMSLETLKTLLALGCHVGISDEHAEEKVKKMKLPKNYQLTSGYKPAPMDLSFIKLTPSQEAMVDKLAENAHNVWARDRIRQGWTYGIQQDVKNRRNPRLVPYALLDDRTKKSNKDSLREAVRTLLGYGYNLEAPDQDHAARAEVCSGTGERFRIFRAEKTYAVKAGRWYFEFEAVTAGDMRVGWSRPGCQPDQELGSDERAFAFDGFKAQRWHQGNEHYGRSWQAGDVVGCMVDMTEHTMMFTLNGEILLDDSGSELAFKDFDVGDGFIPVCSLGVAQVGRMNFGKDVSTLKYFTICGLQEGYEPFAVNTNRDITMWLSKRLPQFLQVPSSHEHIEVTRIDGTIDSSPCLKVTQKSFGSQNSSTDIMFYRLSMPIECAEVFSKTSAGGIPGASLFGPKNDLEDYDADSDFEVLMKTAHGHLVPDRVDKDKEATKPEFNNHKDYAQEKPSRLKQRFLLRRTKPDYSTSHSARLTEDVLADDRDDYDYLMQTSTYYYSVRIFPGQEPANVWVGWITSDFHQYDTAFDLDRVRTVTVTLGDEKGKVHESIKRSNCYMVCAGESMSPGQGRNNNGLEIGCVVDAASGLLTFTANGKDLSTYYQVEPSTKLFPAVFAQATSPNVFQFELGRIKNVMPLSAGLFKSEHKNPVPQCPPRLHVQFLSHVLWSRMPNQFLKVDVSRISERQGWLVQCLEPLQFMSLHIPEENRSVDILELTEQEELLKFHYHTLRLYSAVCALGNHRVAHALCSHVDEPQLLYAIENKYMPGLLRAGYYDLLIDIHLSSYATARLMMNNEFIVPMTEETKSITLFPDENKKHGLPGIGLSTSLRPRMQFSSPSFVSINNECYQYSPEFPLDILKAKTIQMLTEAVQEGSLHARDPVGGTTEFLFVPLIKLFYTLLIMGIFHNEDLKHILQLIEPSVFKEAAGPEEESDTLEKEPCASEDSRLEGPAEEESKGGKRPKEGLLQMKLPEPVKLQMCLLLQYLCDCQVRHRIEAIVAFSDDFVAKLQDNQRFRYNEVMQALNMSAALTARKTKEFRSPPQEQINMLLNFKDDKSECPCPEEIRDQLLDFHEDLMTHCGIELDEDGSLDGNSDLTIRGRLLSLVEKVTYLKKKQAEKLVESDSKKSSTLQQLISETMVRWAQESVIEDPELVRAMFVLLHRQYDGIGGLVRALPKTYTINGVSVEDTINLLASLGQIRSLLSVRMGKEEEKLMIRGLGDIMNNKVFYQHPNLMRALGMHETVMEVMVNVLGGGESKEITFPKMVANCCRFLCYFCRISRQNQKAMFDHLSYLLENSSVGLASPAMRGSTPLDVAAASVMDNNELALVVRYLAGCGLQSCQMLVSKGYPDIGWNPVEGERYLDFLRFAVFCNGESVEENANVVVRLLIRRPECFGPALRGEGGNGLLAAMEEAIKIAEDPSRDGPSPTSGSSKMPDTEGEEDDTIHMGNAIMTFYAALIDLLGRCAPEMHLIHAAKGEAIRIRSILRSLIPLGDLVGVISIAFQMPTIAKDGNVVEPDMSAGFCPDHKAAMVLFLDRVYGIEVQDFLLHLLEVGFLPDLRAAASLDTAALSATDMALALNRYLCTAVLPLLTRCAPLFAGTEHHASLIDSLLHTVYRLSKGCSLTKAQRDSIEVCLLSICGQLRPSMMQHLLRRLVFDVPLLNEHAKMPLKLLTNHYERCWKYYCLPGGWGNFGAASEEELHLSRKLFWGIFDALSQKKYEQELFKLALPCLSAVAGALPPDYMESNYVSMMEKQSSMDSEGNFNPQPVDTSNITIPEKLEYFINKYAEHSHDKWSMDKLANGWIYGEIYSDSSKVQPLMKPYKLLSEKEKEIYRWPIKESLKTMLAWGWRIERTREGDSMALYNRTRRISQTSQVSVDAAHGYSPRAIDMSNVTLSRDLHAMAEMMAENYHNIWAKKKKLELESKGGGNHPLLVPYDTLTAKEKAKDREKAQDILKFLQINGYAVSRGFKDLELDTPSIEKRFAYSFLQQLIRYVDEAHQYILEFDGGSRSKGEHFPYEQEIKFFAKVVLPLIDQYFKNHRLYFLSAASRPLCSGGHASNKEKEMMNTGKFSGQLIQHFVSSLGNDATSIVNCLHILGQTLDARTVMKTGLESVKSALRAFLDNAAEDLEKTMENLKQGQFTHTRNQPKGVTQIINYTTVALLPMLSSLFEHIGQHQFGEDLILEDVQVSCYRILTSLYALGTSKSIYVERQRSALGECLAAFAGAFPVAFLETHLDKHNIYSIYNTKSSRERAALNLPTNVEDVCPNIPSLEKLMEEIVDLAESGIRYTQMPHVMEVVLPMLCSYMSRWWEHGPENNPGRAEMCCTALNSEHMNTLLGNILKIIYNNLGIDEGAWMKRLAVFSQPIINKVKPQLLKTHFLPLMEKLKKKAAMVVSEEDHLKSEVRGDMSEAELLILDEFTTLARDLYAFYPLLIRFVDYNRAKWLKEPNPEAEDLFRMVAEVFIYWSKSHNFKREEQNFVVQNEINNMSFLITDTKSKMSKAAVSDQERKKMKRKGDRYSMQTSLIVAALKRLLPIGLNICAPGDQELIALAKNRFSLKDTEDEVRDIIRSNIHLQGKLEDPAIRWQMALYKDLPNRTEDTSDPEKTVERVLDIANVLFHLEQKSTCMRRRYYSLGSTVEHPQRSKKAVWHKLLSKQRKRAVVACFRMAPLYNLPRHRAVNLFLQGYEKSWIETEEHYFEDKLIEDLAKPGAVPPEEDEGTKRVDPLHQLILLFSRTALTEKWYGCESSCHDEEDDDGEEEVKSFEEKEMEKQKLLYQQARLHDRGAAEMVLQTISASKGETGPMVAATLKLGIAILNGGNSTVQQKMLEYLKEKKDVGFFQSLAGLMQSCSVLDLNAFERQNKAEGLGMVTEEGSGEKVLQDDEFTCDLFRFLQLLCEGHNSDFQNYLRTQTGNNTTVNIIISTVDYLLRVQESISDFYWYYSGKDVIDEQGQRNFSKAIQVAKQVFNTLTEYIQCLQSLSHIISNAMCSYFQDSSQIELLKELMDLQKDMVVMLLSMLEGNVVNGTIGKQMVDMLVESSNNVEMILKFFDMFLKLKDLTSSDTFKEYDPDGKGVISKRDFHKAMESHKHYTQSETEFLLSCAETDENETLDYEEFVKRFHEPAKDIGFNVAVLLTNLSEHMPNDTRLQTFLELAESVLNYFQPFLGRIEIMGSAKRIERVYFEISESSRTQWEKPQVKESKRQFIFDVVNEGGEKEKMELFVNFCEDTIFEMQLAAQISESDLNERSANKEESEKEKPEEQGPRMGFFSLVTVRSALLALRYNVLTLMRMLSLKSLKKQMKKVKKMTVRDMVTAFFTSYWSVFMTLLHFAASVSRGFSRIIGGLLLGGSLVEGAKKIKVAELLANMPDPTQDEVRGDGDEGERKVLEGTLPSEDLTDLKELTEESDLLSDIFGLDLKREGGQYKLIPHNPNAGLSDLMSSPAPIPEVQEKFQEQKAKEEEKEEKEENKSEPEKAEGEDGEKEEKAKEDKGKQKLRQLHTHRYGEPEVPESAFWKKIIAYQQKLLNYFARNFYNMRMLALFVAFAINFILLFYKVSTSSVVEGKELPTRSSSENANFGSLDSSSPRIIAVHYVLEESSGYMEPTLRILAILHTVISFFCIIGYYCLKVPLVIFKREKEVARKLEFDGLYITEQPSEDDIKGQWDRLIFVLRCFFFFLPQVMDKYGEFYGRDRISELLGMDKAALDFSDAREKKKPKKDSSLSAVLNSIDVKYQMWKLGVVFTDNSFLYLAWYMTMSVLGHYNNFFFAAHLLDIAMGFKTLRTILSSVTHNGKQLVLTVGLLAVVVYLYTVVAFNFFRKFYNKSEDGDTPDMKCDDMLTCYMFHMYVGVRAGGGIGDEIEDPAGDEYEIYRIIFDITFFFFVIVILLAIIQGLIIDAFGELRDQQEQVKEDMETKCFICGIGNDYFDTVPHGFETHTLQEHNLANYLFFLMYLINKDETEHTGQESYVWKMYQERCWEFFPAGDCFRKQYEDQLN

For `O=c1c(O)c(-c2cc(O)c(O)c(O)c2)oc2cc(O)cc(O)c12` [myricetin], the “Decrease of F-FKBP binding” value was “did not alter”.
